The values that follow come from US9120728B2, “Modulators of cortical dopaminergic- and NMDA-receptor-mediated glutamatergic neurotransmission” (INTEGRATIVE RESEARCH LABORATORIES SWEDEN AB, priority 2011, dated 2015).

The subject of test [1] is DOPAC (3,4-dihydroxyphenylacetic acid) in the rat striatum. The test is described as follows: Increase of DOPAC (3,4-dihydroxyphenylacetic acid) in the rat striatum after systemic administration. The test is classed as in vivo. Conditions: sc, estimated ED50 on increase of DOPAC in rat striatum, dose range 0-100 μmol/kg s.c., curve fitting. The source says: The increased turnover of dopamine in the terminal areas of the ascending dopaminergic projections of the mammalian brain can be illustrated by measuring of changes in biochemical indices in the brain with the characteristic features of dopamine antagonists, e.g. producing increases in concentrations of dopamine metabolites such as 3,4-dihydroxyphenyl-acetic acid (DOPAC) in the striatum.
After the behavioural activity sessions, the rats are decapitated and their brains rapidly taken out and put on an ice-cold petri-dish. The limbic forebrain, the striatum, the frontal cortex and the remaining hemispheral parts of each rat are dissected and frozen. Each brain part is subsequently analyzed with respect to its content of monoamines and their metabolites.
The monoamine transmitter substances (NA (noradrenaline), DA (dopamine), 5-HT (serotonin)) as well as their amine (NM (normethanephrine), 3-MT (3-methoxytyramine)) and acid (DOPAC (3,4-dihydroxyphenylacetic acid), 5-HIAA (5-hydroxyindoleacetic acid), HVA (homovanillic acid)) metabolites are quantified in brain tissue homogenates by HPLC separations and electrochemical detection
The analytical method is based on two chromatographic separations dedicated for amines or acids. Two chromatographic systems share a common auto injector with a 10-port valve and two sample loops for simultaneous injection on the two systems. Both systems are equipped with a reverse phase column (Luna C18(2), dp 3 μm, 50×2 mm i.d., Phenomenex) and electrochemical detection is accomplished at two potentials on glassy carbon electrodes (MF-1000, Bioanalytical Systems, Inc.). The column effluent is passed via a T-connection to the detection cell or to a waste outlet. This is accomplished by two solenoid valves, which block either the waste or detector outlet. By preventing the chromatographic front from reaching the detector, better detection conditions are achieved. The aqueous mobile phase (0.4 ml/min) for the acid system contains citric acid 14 mM, sodium citrate 10 mM, MeOH 15% (v/v) and EDTA 0.1 mM. Detection potentials relative to Ag/AgCl reference are 0.45 and 0.60V. […] Detection potentials relative to Ag/AgCl reference are 0.45 and 0.65V.
ED50 value for the increase of DOPAC in striatum is calculated by curve fitting. The evaluation is based on 40 animals over the dose range 0, 3.7, 11, 33 and 100 μmol/kg s.c. in two combined experiments. The DOPAC levels are normalised to control and fitted by least square minimization to the function “End-(End-Control)/(1+(dose/ED50)^slope)”. The four parameters (Control, End, ED50 and Slope) are fitted with the restrictions: ED50>0, 0.5<Slope<3, 350<End<400% of control. To estimate confidence levels for the parameters, the fit is repeated 100 times with a random evenly distributed squared weight (0 to 1) for every measurement value. Presented ED50-ranges cover 95% of these values.

The subject of another test is drug-naive rats. The test is described as follows: Effects on spontaneous locomotion (locomotor activity in drug-naive rats). The format is in vivo, rat. Conditions: recorded for 60 minutes immediately after drug administration. The procedure: Prior art dopamine receptor antagonists are known to induce profound decrease in locomotor activity (catalepsy).
Behavioural activity is measured using eight Digiscan activity monitors (RXYZM (16) TAO, Omnitech Electronics, Columbus, Ohio, USA), connected to an Omnitech Digiscan analyzer and an Apple Macintosh computer equipped with a digital interface board (NB DIO-24, National Instruments, USA). Each activity monitor consists of a quadratic metal frame (W×L=40 cm×40 cm) equipped with photobeam sensors. During measurements of behavioural activity, a rat is put in a transparent acrylic cage (WxLxH, 40×40×30 cm) which in turn is placed in the activity monitor. Each activity monitor is equipped with three rows of infrared photobeam sensors, each row consisting of 16 sensors. Two rows are placed along the front and the side of the floor of the cage, at a 90° angle, and the third row is placed 10 cm above the floor to measure vertical activity. Photobeam sensors are spaced 2.5 cm apart. Each activity monitor is fitted in an identical sound and light attenuating box containing a weak house light and a fan.
The computer software is written using object oriented programming (LabVIEW®, National instruments, Austin, Tex., USA).
Behavioural data from each activity monitor, representing the position (horizontal center of gravity and vertical activity) of the animal at each time, are recorded at a sampling frequency of 25 Hz and collected using a custom written LABView™ application. The data from each recording session are stored and analyzed with respect to distance traveled. Each behavioural recording session lasts 60 min, starting approximately 4 min after the injection of test compound. Similar behavioural recording procedures are applied for drug-naïve and drug pre-treated rats. Rats pre-treated with d-amphetamine are given a dose of 1.5 mg/kg i.p. 10 min before the recording session in the activity monitor. Rats pre-treated with MK-801 are given a dose of 0.7 mg/kg i.p. 90 min before the recording session in the activity monitor. The results are presented as counts/60 minutes, or counts/30 minutes, in arbitrary length units. Statistical comparisons are carried out using Student's t-test against the control group. In MK-801 or amphetamine pre-treated animals, statistical comparisons are made against the MK801 or d-amphetamine controls, respectively.

In a further test the test system is MK-801 pre-treated rats. The test is described as follows: Reduction of MK-801-induced hyper-locomotion. The test is classed as in vivo. Conditions: Rattus norvegicus; MK-801 0.7 mg/kg i.p. 90 minutes before test compound; locomotor activity between 45 and 60 minutes after administration; 0-100 μmol/kg s.c. The source says:
Reduction of MK-801-Induced Hyper-Locomotion Another animal model of antipsychotic activity is based on administration of the glutamate antagonist MK-801. Glutamate antagonists (i.e. NMDA antagonists), can induce psychoses in man (see Psychopharmacology, 4th Generation of progress Chapter 101, p. 1205 and 1207) and induce behavioural aberrations in animals. Thus, the ability of a drug to affect schizophrenia and psychotic states can be measured using behavioural models based on experimentally-induced hypoglutamatergic states. In this study the NMDA antagonist MK-801 (0.7 mg/kg i.p.) was used to create a hypoglutamatergic state where the rats display abnormal, hyperactive behaviour.
Behavioural activity is measured using eight Digiscan activity monitors (RXYZM (16) TAO, Omnitech Electronics, Columbus, Ohio, USA), connected to an Omnitech Digiscan analyzer and an Apple Macintosh computer equipped with a digital interface board (NB DIO-24, National Instruments, USA). […]
Behavioural data from each activity monitor, representing the position (horizontal center of gravity and vertical activity) of the animal at each time, are recorded at a sampling frequency of 25 Hz and collected using a custom written LABView™ application. The data from each recording session are stored and analyzed with respect to distance traveled. […]

Take `CS(=O)(=O)c1cc(F)cc(OCCNC2CCC2)c1` [Example 8, N-[2-(3-fluoro-5-methylsulfonyl-phenoxy)ethyl]cyclobutanamine]: the ED50 (in general, the midpoint of the dose-response relation) in test [1] is 36 µmol/kg; with MK-801 pre-treated rats, 40 µmol/kg. Further, the results for the Locomotor activity in the test on drug-naive rats (3.7 μmol/kg), in the test with drug-naive rats (11 μmol/kg) and with drug-naive rats (33 μmol/kg) were 10319 counts/60 min, 12888 counts/60 min and 12872 counts/60 min, respectively.
